# Test system: cats
# Test: Clinical chemistry (target animal safety study)
# Assay type: in vivo, cat
# Conditions: for Total Bilirubin (mean ± SD) / GGT (mean ± SD) / AST (mean ± SD) / Creatine Kinase (mean ± SD) / Creatinine (mean ± SD) / Albumin/Globulin Ratio (mean ± SD) / Globulin (mean ± SD) / Albumin (mean ± SD) / Potassium (mean ± SD) / Total Protein (mean ± SD) / Phosphorus (mean ± SD) / Calcium (mean ± SD) / Triglyceride (mean ± SD) / Urea Nitrogen (mean ± SD) / ALT (mean ± SD) / Alkaline Phosphatase (mean ± SD) / Glucose (mean ± SD) / Cholesterol (mean ± SD) / Chloride (mean ± SD) / Sodium (mean ± SD): post-treatment, average of days 13 and 37; for Total Bilirubin (mean ± SD): reference range 0 - 0.3; for GGT (mean ± SD): reference range 0 – 2; for GGT (mean ± SD) / Albumin/Globulin Ratio (mean ± SD): significant treatment x sex and treatment x time effects (p<0.1); for AST (mean ± SD): reference range 0 – 55; for AST (mean ± SD) / Triglyceride (mean ± SD): significant treatment x sex effect (p<0.1); for Creatine Kinase (mean ± SD): reference range 0 – 1213; for Creatinine (mean ± SD): reference range 0.5 - 1.3; for Albumin/Globulin Ratio (mean ± SD): reference range 0.9 - 1.5; for Globulin (mean ± SD): reference range 2.1 - 3.3; for Albumin (mean ± SD): reference range 2.9 - 3.7; for Potassium (mean ± SD): reference range 4.6 - 7.4, significant treatment x time effect (p<0.1); for Total Protein (mean ± SD): reference range 5.4 - 6.7; for Phosphorus (mean ± SD): reference range 6.2 - 9.7, significant (p<0.1); for Calcium (mean ± SD): reference range 9.6 - 11.5; for Triglyceride (mean ± SD): reference range 12 – 64; for Urea Nitrogen (mean ± SD): reference range 15 – 35; for ALT (mean ± SD): reference range 27 – 103; for Alkaline Phosphatase (mean ± SD): reference range 50 – 186; for Glucose (mean ± SD): reference range 55 - 159; for Cholesterol (mean ± SD): reference range 88 – 148; for Chloride (mean ± SD): reference range 112 – 123; for Sodium (mean ± SD): reference range 146 – 160
# Method: The upper lip was everted and a Surgicutt incision device was used to create a small incision (approximately 1 mm in depth and 3.5 mm in length). Blood flow from the incision site was blotted using filter paper below the incision. The elapsed time from the triggering of the device until blood no longer appeared on the filter paper was recorded as the bleed time. […] Blood samples (3.0 mL) were collected from the jugular vein into tubes containing K3EDTA for evaluation of hematology parameters, sodium citrate for evaluation of coagulation parameters, and serum separators with no anticoagulant for the clinical chemistry samples. […] Coagulation variables were determined using a Stago Compact (Diagnostica Stago, Parsippany, NJ, US), clinical chemistry variables were determined using an Olympus AU2700 or AU640e (Olympus Diagnostics, Southall, UK), and urinalysis variables were determined using a […]-500 or Atlas (Siemens, Munich, Germany), Reichert VET 360 (Reichert Technologies, Buffalo, New York, USA), or light microscope. Post-treatment values were analyzed using […], with treatment group, sex, time, and their interactions as fixed model effects and the pre-treatment value measured closest to dosing as a covariate. Repeated measurements in the same animal were modeled using a compound symmetry or heterogeneous compound symmetry correlation structure (for food consumption: autoregressive first-order or heterogeneous autoregressive first-order); the model with the smallest Akaike's Information Criterion was selected for each outcome. If any of the interactions involving treatment was significant (p < 0.1 for the two-factor interactions or p < 0.05 for the three-factor interaction), it was inappropriate to evaluate the main or overall treatment effect independently of the interacting factor and, as such, treatment comparisons were conducted for each level of the interacting factor. If none of the interactions involving treatment were significant, overall treatment differences were assessed.
# [1] = 1X (oral ≥2.4, SC 2.0 mg/kg/day)
# [2] = 2X (oral ≥4.8, SC 4.0 mg/kg/day)
# [3] = 3X (oral ≥7.2, SC 6.0 mg/kg/day)
structure (smiles),measurement,setting,value
CCc1ccc(Nc2c(F)c(F)cc(F)c2F)c(CC(=O)O)c1 [robenacoxib],Total Bilirubin (mean ± SD),[1],0.18 ± 0.04 mg/dL
same,GGT (mean ± SD),[1],1.14 ± 0.43 U/L
same,AST (mean ± SD),[1],22.2 ± 8.6 U/L
same,Creatine Kinase (mean ± SD),[1],1479 ± 1901 U/L
same,Creatinine (mean ± SD),[1],0.86 ± 0.13 mg/dL
same,Albumin/Globulin Ratio (mean ± SD),[1],1.29 ± 0.14
same,Globulin (mean ± SD),[1],2.62 ± 0.23 g/dL
same,Albumin (mean ± SD),[1],3.31 ± 0.21 g/dL
same,Potassium (mean ± SD),[1],5.40 ± 0.24 mEq/L
same,Total Protein (mean ± SD),[1],5.93 ± 0.28 g/dL
same,Phosphorus (mean ± SD),[1],8.86 ± 0.76 mg/dL
same,Calcium (mean ± SD),[1],10.01 ± 0.31 mg/dL
same,Triglyceride (mean ± SD),[1],40.1 ± 27.2 mg/dL
same,Urea Nitrogen (mean ± SD),[1],25.3 ± 2.7 mg/dL
same,ALT (mean ± SD),[1],54.6 ± 9.2 U/L
same,Alkaline Phosphatase (mean ± SD),[1],105.6 ± 40.6 U/L
same,Glucose (mean ± SD),[1],85.1 ± 7.1 mg/dL
same,Cholesterol (mean ± SD),[1],105.0 ± 18.1 mg/dL
same,Chloride (mean ± SD),[1],116.63 ± 1.50 mEq/L
same,Sodium (mean ± SD),[1],150.3 ± 1.3 mEq/L
same,Total Bilirubin (mean ± SD),[2],0.19 ± 0.03 mg/dL
same,GGT (mean ± SD),[2],1.33 ± 0.65 U/L
same,AST (mean ± SD),[2],22.0 ± 4.1 U/L
same,Creatine Kinase (mean ± SD),[2],975 ± 903 U/L
same,Creatinine (mean ± SD),[2],0.85 ± 0.12 mg/dL
same,Albumin/Globulin Ratio (mean ± SD),[2],1.36 ± 0.14
same,Globulin (mean ± SD),[2],2.57 ± 0.28 g/dL
same,Albumin (mean ± SD),[2],3.46 ± 0.17 g/dL
same,Potassium (mean ± SD),[2],5.33 ± 0.41 mEq/L
same,Total Protein (mean ± SD),[2],6.03 ± 0.35 g/dL
same,Phosphorus (mean ± SD),[2],8.18 ± 0.83 mg/dL
same,Calcium (mean ± SD),[2],10.16 ± 0.26 mg/dL
same,Triglyceride (mean ± SD),[2],32.4 ± 9.1 mg/dL
same,Urea Nitrogen (mean ± SD),[2],24.8 ± 4.0 mg/dL
same,ALT (mean ± SD),[2],56.6 ± 9.4 U/L
same,Alkaline Phosphatase (mean ± SD),[2],94.5 ± 24.4 U/L
same,Glucose (mean ± SD),[2],84.1 ± 9.0 mg/dL
same,Cholesterol (mean ± SD),[2],103.9 ± 14.2 mg/dL
same,Chloride (mean ± SD),[2],115.88 ± 1.71 mEq/L
same,Sodium (mean ± SD),[2],150.5 ± 1.4 mEq/L
same,"phosphorus relative to controls (pairwise comparison, pooled samples over all time points)","2X group, not considered clinically relevant",decrease
same,Total Bilirubin (mean ± SD),[3],0.19 ± 0.03 mg/dL
same,GGT (mean ± SD),[3],0.94 ± 0.05 U/L
same,AST (mean ± SD),[3],22.8 ± 6.8 U/L
same,Creatine Kinase (mean ± SD),[3],1763 ± 2175 U/L
same,Creatinine (mean ± SD),[3],0.79 ± 0.12 mg/dL
same,Albumin/Globulin Ratio (mean ± SD),[3],1.32 ± 0.16
same,Globulin (mean ± SD),[3],2.66 ± 0.29 g/dL
same,Albumin (mean ± SD),[3],3.44 ± 0.18 g/dL
same,Potassium (mean ± SD),[3],5.50 ± 0.43 mEq/L
same,Total Protein (mean ± SD),[3],6.10 ± 0.34 g/dL
same,Phosphorus (mean ± SD),[3],8.66 ± 0.78 mg/dL
same,Calcium (mean ± SD),[3],10.17 ± 0.26 mg/dL
same,Triglyceride (mean ± SD),[3],37.7 ± 14.7 mg/dL
same,Urea Nitrogen (mean ± SD),[3],25.2 ± 3.9 mg/dL
same,ALT (mean ± SD),[3],55.3 ± 10.5 U/L
same,Alkaline Phosphatase (mean ± SD),[3],90.0 ± 19.5 U/L
same,Glucose (mean ± SD),[3],83.1 ± 6.2 mg/dL
same,Cholesterol (mean ± SD),[3],112.6 ± 23.7 mg/dL
same,Chloride (mean ± SD),[3],115.81 ± 1.97 mEq/L
same,Sodium (mean ± SD),[3],150.6 ± 1.5 mEq/L

# From article PMC7520961, “Safety evaluation of the interchangeable use of robenacoxib in commercially-available tablets and solution for injection in cats” (BMC Veterinary Research, 2020)
